Reference: ChEMBL document CHEMBL6182895, “Synthesis, in vitro and in vivo evaluation, and computational modeling analysis of thioxothiazolidine derivatives as highly potent and selective α-amylase inhibitors” (Eur J Med Chem, 2025)
The source made the active and inactive calls. The calls are words filed in the database; no cut-off is given here.

What was measured:
Homo sapiens [1] = organism: Homo sapiens; test: Inhibition of alpha-amylase (unknown origin) using starch as substrate preincubated for 10 mins followed by substrate addition and measured after 10 mins relative to control; design: concentration or dose not given beside the values; settings: time 20.0 min
[2] = Inhibition of alpha-amylase (unknown origin) using starch as substrate preincubated for 10 mins followed by substrate addition and measured after 10 mins; design: species or system Homo sapiens
Homo sapiens [3] = organism: Homo sapiens; test: Inhibition of alpha-glucosidase (unknown origin) using p-NPG as substrate preincubated for 5 mins followed by substrate addition and measured after 30 mins relative to control; design: concentration or dose not given beside the values; settings: time 35.0 min
Homo sapiens [4] = organism: Homo sapiens; test: Potency index, ratio of acarbose IC50 to test compound IC50 for inhibition of alpha-amylase (unknown origin) using starch as substrate preincubated for 10 mins followed by substrate addition and measured after 10 mins; settings: time 20.0 min
Homo sapiens [5] = organism: Homo sapiens; test: Mixed type of inhibition of alpha-amylase (unknown origin) assessed as change in Km and Vmax of substrate using starch as substrate and measured after 10 mins by Lineweaver-burk plot analysis
Rattus norvegicus [6] = test: Antidiabetic activity against streptozotocin-induced diabetic Wistar rat model assessed as blood glucose level at 10 mg/kg, po and measured on day 1 (reference value: 324.7 +/-6.24 mg/dl); format: functional; settings: time 1 day
Rattus norvegicus [7] = test: Antidiabetic activity against streptozotocin-induced diabetic Wistar rat model assessed as blood glucose level at 10 mg/kg, po and measured on day 7 (reference value: 378.8 +/-6.48 mg/dl); format: functional; settings: time 7 day
Rattus norvegicus [8] = test: Antidiabetic activity against streptozotocin-induced diabetic Wistar rat model assessed as blood glucose level at 10 mg/kg, po and measured on day 14 (reference value: 388.3 +/-6.34 mg/dl); format: functional; settings: time 14 day
Rattus norvegicus [9] = test: Antidiabetic activity against streptozotocin-induced diabetic Wistar rat model assessed as restoration of metabolic homeostasis by measuring serum urea level at 10 mg/kg, po measured on day 1 to 14 (reference value: 124.68 +/-2.16 mg/dl); format: functional; settings: time 1-14 day
Rattus norvegicus [10] = test: Antidiabetic activity against streptozotocin-induced diabetic Wistar rat model assessed as restoration of metabolic homeostasis by measuring serum creatinine level at 10 mg/kg, po measured on day 1 to 14 (reference value: 116.81 +/-9.26 uM); format: functional; settings: time 1-14 day
Rattus norvegicus [11] = test: Antidiabetic activity against streptozotocin-induced diabetic Wistar rat model assessed as restoration of metabolic homeostasis by measuring decrease in […] level in serum at 10 mg/kg, po measured on day 1 to 14; format: functional, organism-based; settings: time 1-14 day
Rattus norvegicus [12] = test: Antidiabetic activity against streptozotocin-induced diabetic Wistar rat model assessed as restoration of metabolic homeostasis by measuring AST level in serum at 10 mg/kg, po measured on day 1 to 14 (reference value: 133.49 +/-2.52 IU/L); format: functional; settings: time 1-14 day
Rattus norvegicus [13] = test: Antidiabetic activity against streptozotocin-induced diabetic Wistar rat model assessed as restoration of metabolic homeostasis by measuring ALT level in serum at 10 mg/kg, po measured on day 1 to 14 (reference value: 35.2 +/-1.58 IU/L); format: functional; settings: time 1-14 day
Rattus norvegicus [14] = test: Antidiabetic activity against streptozotocin-induced diabetic Wistar rat model assessed as restoration of metabolic homeostasis by measuring ALP level in serum at 10 mg/kg, po measured on day 1 to 14 (reference value: 195.13 +/-1.08 IU/L); format: functional; settings: time 1-14 day
Rattus norvegicus [15] = test: Protection against diabetes-induced organ dysfunction in streptozotocin-induced diabetic Wistar rat model assessed as reduction in liver damage by measuring improved hepatic sinusoid congestion and healthier hepatocytes with reduced lipid droplets at 10 mg/kg, po and measured on day 14 by Hematoxylin-Eosin staining based analysis; format: functional, organism-based; settings: time 14.0 day
Rattus norvegicus [16] = test: Protection against diabetes-induced organ dysfunction in streptozotocin-induced diabetic Wistar rat model assessed as reduction in kidney damage by measuring kidney with structural improvement and reduced retraction, preserved glomeruli and less hemorrhages at 10 mg/kg, po and measured on day 14 by Hematoxylin-Eosin staining based analysis; format: functional, organism-based; settings: time 14.0 day
Rattus norvegicus [17] = test: Protection against diabetes-induced organ dysfunction in streptozotocin-induced diabetic Wistar rat model assessed as reduction in pancreas damage by measuring well preserved islet structure at 10 mg/kg, po and measured on day 14 by Hematoxylin-Eosin staining based analysis; format: functional, organism-based; settings: time 14.0 day
[18] = Inhibition of alpha-amylase (unknown origin); design: species or system Homo sapiens
[19] = Inhibition of porcine pancreatic alpha-amylase using starch as substrate preincubated for 10 mins followed by substrate addition and measured after 30 mins; design: species or system Sus scrofa
[20] = Inhibition of porcine pancreatic alpha-amylase using starch as substrate preincubated for 10 mins followed by substrate addition and measured after 5 mins; design: species or system Sus scrofa

| Structure (SMILES) | inhibition (Homo sapiens [1]) | inhibition (Homo sapiens [3]) | further results |
| --- | --- | --- | --- |
| Cn1ccnc1/C=C1\SC(=S)N(CC(=O)Nc2ccc(C(F)(F)F)cc2)C1=O | 80.4% | 6.43% | IC50 [2]: 0.71 µM; Ratio IC50 (Homo sapiens [4]): 1340; inhibition (Homo sapiens [5]): Active; Activity (Rattus norvegicus [6]): 328.3 mg/dL; Activity (Rattus norvegicus [7]): 149.7 mg/dL; Activity (Rattus norvegicus [8]): 106.2 mg/dL; Activity (Rattus norvegicus [9]): 57.31 mg/dL; Activity (Rattus norvegicus [10]): 82.14 µM; Activity (Rattus norvegicus [11]): Active; Activity (Rattus norvegicus [12]): 41.13 IU/L; Activity (Rattus norvegicus [13]): 12.04 IU/L; Activity (Rattus norvegicus [14]): 138.41 IU/L; Activity (Rattus norvegicus [15]): Active; Activity (Rattus norvegicus [16]): Active; Activity (Rattus norvegicus [17]): Active |
| O=C(CN1C(=O)/C(=C/c2csc3ccccc23)SC1=S)Nc1c(F)cc(F)cc1Br | 60.4% | 6.49% | IC50 [2]: 190 µM |
| O=C(CN1C(=O)/C(=C/c2nc3ccccc3s2)SC1=S)Nc1c(F)cc(Br)cc1Cl | 69.8% | 8.37% | IC50 [2]: 167 µM |
| Fc1ccc(NC(=S)Nc2nnc(-c3ccc4cn[nH]c4c3)s2)cc1 | – | – | IC50 [18]: 9.9 µM |
| CC(=O)N1C(=O)C(Cc2cn(-c3ccc([N+](=O)[O-])cc3[N+](=O)[O-])nc2-c2ccc(O)cc2)SC1=S (stereo unspecified) | – | – | IC50 [19]: 638 µM |
| CC(C)CNC(=O)CN1C(=O)/C(=C/c2nccs2)SC1=S | 30.4% | 6.43% | – |
| O=C1OCc2cc(-c3ccc(C(F)(F)F)cc3)ccc21 | – | – | IC50 [18]: 85.4 µM |
| O=C(CN1C(=O)/C(=C/c2nc3ccccc3s2)SC1=S)Nc1ccc(Br)cc1F | 69.2% | 7.65% | IC50 [2]: 128 µM |
| O=C(CN1C(=O)/C(=C/c2nccs2)SC1=S)Nc1ccc(C(F)(F)F)cc1 | 34.8% | 7.83% | – |
| COC(=O)[C@@H]1N[C@@]2(C(=O)Nc3ccc(Br)cc32)[C@@]2(SC(=S)NC2=O)[C@H]1c1ccccc1 | – | – | IC50 [20]: 1.49 µM |
| Cn1ccnc1/C=C1\SC(=S)N(CC(=O)Nc2c(F)cc(F)cc2Br)C1=O | 59.2% | 6.24% | IC50 [2]: 129 µM |
| O=C(CN1C(=O)/C(=C/c2nccs2)SC1=S)Nc1cccnn1 | 10.1% | 10.1% | – |
| O=C(CN1C(=O)/C(=C/c2csc3ccccc23)SC1=S)Nc1cccnn1 | 37.8% | 7.87% | – |
| Cn1ccnc1/C=C1\SC(=S)N(CC(=O)NC23CC4CC(CC(C4)C2)C3)C1=O | 15.2% | 8.22% | – |
| O=C(CN1C(=O)/C(=C/c2nc3ccccc3s2)SC1=S)Nc1cccnn1 | 37.4% | 7.42% | – |
| CC(C)CNC(=O)CN1C(=O)/C(=C/c2csc3ccccc23)SC1=S | 29.6% | 8.62% | – |
| O=C(CN1C(=O)/C(=C/c2nc3ccccc3s2)SC1=S)NC12CC3CC(CC(C3)C1)C2 | 29.6% | 6.63% | – |
| CC(C)CNC(=O)CN1C(=O)/C(=C/c2nc3ccccc3s2)SC1=S | 43.2% | 6.23% | – |
